Measured values from USRE47739E1, “2-(pyridin-2-ylamino)-pyrido[2,3-D]pyrimidin-7-ones” (Warner-Lambert Company LLC, priority 2002, dated 2019).
Structures can show the parent of a compound that is named as a salt.

Key:
[1] = target: Cdk4/Cyclin D (Homo sapiens, UniProt P11802); assay: Assay for Inhibition of Cdk4/Cyclin D; assay type: biochemical; conditions: 25 μM ATP, retinoblastoma protein substrate, 25° C., 15 minutes
Experimental: (§1) The assays were carried out as described below.
Assay for Inhibition of Cdk4/Cyclin D
The Cdk4 enzyme assay for IC50 determination and kinetic evaluation is performed as follows. 96-well filter plates (Millipore MADVN6550) are used. […] Buffer A containing excess EDTA was used to determine the level of background ^32P in the absence of enzyme activity. All components except the ATP are added to the wells, and the plate is placed on a plate mixer for 2 minutes. The reaction is started by adding [^32P]ATP, and the plate is incubated at 25° C. for 15 minutes. The reaction is terminated by addition of 0.1 mL 20% trichloroacetic acid (TCA). The plate is kept at 4° C. for at least 1 hour to allow the substrate to precipitate. The wells are then washed five times with 0.2 mL 10% TCA, and ^32P incorporation is determined with a beta plate counter (Wallac Inc., Gaithersburg, Md.).

[2] = target: FGF receptor (FGFr) tyrosine kinase (Homo sapiens, UniProt P11362); assay: Assay for Inhibition of FGFr; assay type: biochemical; conditions: 50 μM ATP, Poly (4:1) glutamate-tyrosine substrate, 25° C.
Chain of FGF receptor (FGFr) tyrosine kinase (P11362 22-822): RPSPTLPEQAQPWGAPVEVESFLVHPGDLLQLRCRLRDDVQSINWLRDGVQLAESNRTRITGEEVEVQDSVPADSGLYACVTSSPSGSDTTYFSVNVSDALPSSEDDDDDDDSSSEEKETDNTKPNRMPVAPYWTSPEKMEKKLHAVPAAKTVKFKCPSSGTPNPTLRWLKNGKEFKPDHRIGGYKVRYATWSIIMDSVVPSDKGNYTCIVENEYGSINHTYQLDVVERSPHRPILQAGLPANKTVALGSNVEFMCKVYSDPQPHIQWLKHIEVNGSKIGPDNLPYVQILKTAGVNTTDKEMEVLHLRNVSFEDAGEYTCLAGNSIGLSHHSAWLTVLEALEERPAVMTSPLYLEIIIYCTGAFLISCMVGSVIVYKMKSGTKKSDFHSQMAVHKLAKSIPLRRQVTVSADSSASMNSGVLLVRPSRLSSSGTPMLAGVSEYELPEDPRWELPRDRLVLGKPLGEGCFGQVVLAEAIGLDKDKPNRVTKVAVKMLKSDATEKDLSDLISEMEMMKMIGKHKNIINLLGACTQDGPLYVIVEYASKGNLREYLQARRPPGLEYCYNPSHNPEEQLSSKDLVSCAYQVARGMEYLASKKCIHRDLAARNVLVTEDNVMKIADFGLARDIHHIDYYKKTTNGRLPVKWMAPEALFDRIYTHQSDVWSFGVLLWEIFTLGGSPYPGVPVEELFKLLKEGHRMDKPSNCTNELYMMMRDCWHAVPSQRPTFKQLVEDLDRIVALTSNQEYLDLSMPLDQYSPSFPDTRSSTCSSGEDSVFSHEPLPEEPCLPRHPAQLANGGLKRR
Experimental: as §1
Assay for Inhibition of FGFr
For FGF receptor (FGFr) tyrosine kinase assays 96-well plates (100 μL/incubation/well), and conditions are optimized to measure the incorporation of ^32P from [γ^32P]ATP into a glutamate-tyrosine co-polymer substrate. Briefly, to each well is added 82.5 μL incubation buffer B (25 mM Hepes (pH 7.0), 150 mM NaCl, 0.1% Triton X-100, 0.2 mM PMSF, 0.2 mM Na3VO4, 10 mM MnCl2) and 750 μg/mL Poly (4:1) glutamate-tyrosine followed by 2.5 μL of the test compound in buffer B and 5 μL of a 7.5 μg/μL FGFr solution to initiate the reaction. Following a 10-minute incubation at 25° C., […] [γ^32P]ATP (0.4 μCi plus 50 μM ATP) is added to each well, and samples are incubated for an additional 10 minutes at 25° C. The reaction is terminated by the addition of 100 μL 30% trichloroacetic acid (TCA) containing 20 mM sodium pyrophosphate and precipitation of material onto glass fiber mats (Wallac). […] Nonspecific activity is defined as radioactivity retained on the filters following incubation of samples with buffer alone (no enzyme). Specific enzymatic activity (enzyme plus buffer) is defined as total activity minus nonspecific activity.

Chain of Cdk4/Cyclin D (P11802 whole entry, species assumed): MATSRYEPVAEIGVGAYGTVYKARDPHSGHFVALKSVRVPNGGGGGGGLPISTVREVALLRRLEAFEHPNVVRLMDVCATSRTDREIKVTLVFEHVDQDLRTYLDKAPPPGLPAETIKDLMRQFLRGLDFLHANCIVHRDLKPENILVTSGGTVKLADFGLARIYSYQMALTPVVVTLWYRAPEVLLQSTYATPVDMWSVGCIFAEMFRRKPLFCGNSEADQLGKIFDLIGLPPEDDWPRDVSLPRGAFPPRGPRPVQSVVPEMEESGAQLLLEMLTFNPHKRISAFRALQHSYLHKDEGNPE
Chain of Cdk4/Cyclin D (P24385 whole entry partner, species assumed): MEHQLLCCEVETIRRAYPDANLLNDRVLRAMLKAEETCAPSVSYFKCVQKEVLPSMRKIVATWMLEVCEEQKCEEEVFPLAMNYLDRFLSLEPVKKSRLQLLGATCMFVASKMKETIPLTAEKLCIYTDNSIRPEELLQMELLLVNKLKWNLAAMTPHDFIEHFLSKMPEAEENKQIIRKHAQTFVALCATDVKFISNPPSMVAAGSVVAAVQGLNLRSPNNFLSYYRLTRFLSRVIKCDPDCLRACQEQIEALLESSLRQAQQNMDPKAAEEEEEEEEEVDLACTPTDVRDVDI

| SMILES | IC50 [1] [nM] | IC50 [2] [nM] |
| --- | --- | --- |
| CC(=O)c1c(C)c2cnc(Nc3ccc(N4CCN(C)CC4)cn3)nc2n(C2CCCC2)c1=O [Example 72, 6-Acetyl-8-cyclopentyl-5-methyl-2-[5-(4-methyl-piperazin-1-yl)-pyridin-2-ylamino]-8H-pyrido[2,3-d]pyrimidin-7-one] | 5 |  |
| Cc1c(Br)c(=O)n(C2CCCC2)c2nc(Nc3ccc(N4CCCCC4)cn3)ncc12 [Example 103, 6-Bromo-8-cyclopentyl-5-methyl-2-(3,4,5,6-tetrahydro-2H-[1,3]bipyridinyl-6′-ylamino)-8H-pyrido[2,3-d]pyrimidin-7-one] | > 5000 |  |
| CCOCc1cc2cnc(Nc3ccc(N4CCNCC4)cn3)nc2n(C2CCCC2)c1=O [Example 116, 8-Cyclopentyl-6-ethoxymethyl-2-(5-piperazin-1-yl-pyridin-2-ylamino)-8H-pyrido[2,3-d]pyrimidin-7-one] | 18 | > 5000 |
| CC(C)COc1cc2cnc(Nc3ccc(N4CCNCC4)cn3)nc2n(C2CCCC2)c1=O [Example 22, 8-Cyclopentyl-6-isobutoxy-2-(5-piperazin-1-yl-pyridin-2-ylamino)-8H-pyrido[2.3-d]pyrimidin-7-one hydrochloride] | 1700 | > 5000 |
| O=c1c(Br)cc2cnc(Nc3ccccn3)nc2n1C1CCCCC1 [Example 13, 6-Bromo-8-cyclohexyl-2-(pyridin-2-yl-amino)-8H-pyrido[2,3-d]pyrimidin-7-one] | > 5000 |  |
| CCOCCOc1cc2cnc(Nc3ccc(N4CCNCC4)cn3)nc2n(C2CCCC2)c1=O [Example 53, 8-Cyclopentyl-6-(2-ethoxy-ethoxy)-2-(5-piperazin-1-yl-pyridin-2-ylamino)-8H-pyrido[2,3-d]pyrimidin-7-one] | 36 | > 5000 |
| O=c1ccc2cnc(Nc3ccc(N4CCNCC4)cn3)nc2n1C1CC1 [Example 64, 8-cyclopropyl-2-(5-piperazin-1-yl-pyridin-2-ylamino)-8H-pyrido[2,3-d]pyrimidin-7-one] | 920 | 4470 |
| Cc1cc(=O)n(C2CCCC2)c2nc(Nc3ccc(N4CCNCC4)cn3)ncc12 [Example 84, 8-Cyclopentyl-5-methyl-2-(5-piperazin-4-yl-pyridin-2-ylamino)-8H-pyrido[2,3-d]pyrimidin-7-one] | 580 | > 5000 |
| CC(C)n1c(=O)ccc2cnc(Nc3ccc(N4CCNCC4)cn3)nc21 [Example 57, 8-isopropyl-2-(5-piperazin-1-yl-pyridin-2-ylamino)-8H-pyrido[2.3-d]pyrimidin-7-one] | > 5000 | > 5000 |
| CN1CCC[C@H]1c1ccc(Nc2ncc3cc(Br)c(=O)n(C4CCCC4)c3n2)nc1 [Example 12, 6-Bromo-8-cyclopentyl-2-[5-((S)-1-methyl-1-pyrrolidin-2-yl)-pyridin-2-ylamino]-8H-pyrido[2,3-d]pyrimidin-7-one hydrochloride] | 175 |  |
| CC(=O)c1c(C)c2cnc(Nc3ccc(N4CCC(N)C4)cn3)nc2n(C2CCCC2)c1=O (centres unmarked) [Example 74, 6-Acetyl-2-[5-(3-amino-pyrrolidin-1-yl)-pyridin-2-ylamino]-8-cyclopentyl-5-methyl-8H-pyrido[2,3-d]pyrimidin-7-one] | 14 | > 5000 |
| CC(=O)c1c(C)c2cnc(Nc3ccc(N4CCCNCC4)cn3)nc2n(C2CCCC2)c1=O [Example 81, 6-Acetyl-8-cyclopentyl-2-(5-[1,4]diazepan-1-yl-pyridin-2-ylamino)-5-methyl-8H-pyrido[2,3-d]pyrimidin-7-one] | 12 | > 5000 |
| CCc1cc2cnc(Nc3ccc(N4CCNCC4)cn3)nc2n(C2CCCC2)c1=O [Example 5, 8-Cyclopentyl-6-ethyl-2-(5-piperazin-1-yl-pyridin-2-ylamino)-8H-pyrido[2,3-d]pyrimidin-7-one hydrochloride] | 19 | 990 |
| CC(=O)c1c(C)c2cnc(Nc3ccc(N4CC(C)NC(C)C4)cn3)nc2n(C2CCCC2)c1=O (centres unmarked) [Example 95, 6-Acetyl-8-cyclopentyl-2-[5-(3,5-dimethyl-piperazin-1-yl)-pyridin-2-ylamino]-5-methyl-8H-pyrido[2,3-d]pyrimidin-7-one] | 37 | > 5000 |
| CC(=O)c1c(C)c2cnc(Nc3ccc(N4CCNC(C)(C)C4)cn3)nc2n(C2CCCC2)c1=O [Example 90, 6-Acetyl-8-cyclopentyl-2-[5-(3,3-dimethyl-piperazin-1-yl)-pyridin-2-ylamino]-5-methyl-8H-pyrido[2,3-d]pyrimidin-7-one] | 21 | > 5000 |
| CCOC(=O)c1cc2cnc(Nc3ccc(N4CCNCC4)cn3)nc2n(C2CCCC2)c1=O [Example 7, 8-Cyclopentyl-7-oxo-2-(5-piperazin-1-yl-pyridin-2-ylamino)-7,8-dihydro-pyrido[2,3-d]pyrimidine-6-carboxylic acid ethyl ester hydrochloride] | 595 |  |
| O=c1c(CO)cc2cnc(Nc3ccc(N4CCNCC4)cn3)nc2n1C1CCCC1 [Example 29, 8-Cyclopentyl-6-hydroxymethyl-2-(5-piperazin-1-yl-pyridin-2-ylamino)-8H-pyrido[2,3-d]pyrimidin-7-one hydrochloride] | 13 | 4380 |
| Cc1c(Br)c(=O)n(C2CCCC2)c2nc(Nc3ccc(N4CCC(O)CC4)cn3)ncc12 [Example 75, 6-Bromo-8-cyclopentyl-2-(4-hydroxy-3,4,5,6-tetrahydro-2H-[1,3′]bipyridinyl-6′-ylamino)-5-methyl-8H-pyrido[2,3-d]pyrimidin-7-one] | 74 | > 5000 |
| NC(=O)c1ccc(Nc2ncc3cc(Br)c(=O)n(C4CCCC4)c3n2)nc1 [Example 14] | 260 |  |
| Nc1cc2cnc(Nc3ccc(N4CCNCC4)cn3)nc2n(C2CCCC2)c1=O [Example 11, 6-Amino-8-cyclopentyl-2-(5-piperazin-1-yl-pyridin-2-ylamino)-8H-pyrido[2,3-d]pyrimidin-7-one hydrochloride] | 12 | 2120 |
| CCOCCc1cc2cnc(Nc3ccc(N4CCNCC4)cn3)nc2n(C2CCCC2)c1=O [Example 108, 8-Cyclopentyl-6-(2-ethoxy-ethyl)-2-(5-piperazin-1-yl-pyridin-2-ylamino)-8H-pyrido[2,3-d]pyrimidin-7-one] | 124 | > 5000 |
| Cc1c(Br)c(=O)n(C2CCCC2)c2nc(Nc3ccc(N4CCNCC4)cn3)ncc12 [Example 15, 6-Bromo-8-cyclopentyl-5-methyl-2-(5-piperizin-1-yl-pyridin-2-ylamino)-8H-pyrido[2,3-d]pyrimidin-7-one] | 160 | > 5000 |
| Cc1c(Br)c(=O)n(C2CCCC2)c2nc(Nc3ccc(N4CCOCC4)cn3)ncc12 [Example 98, 6-Bromo-8-cyclopentyl-5-methyl-2-(5-morpholin-4-yl-pyridin-2-ylamino)-8H-pyrido[2,3-d]pyrimidin-7-one] | 1950 | > 5000 |
| CC(=O)c1c(C)c2cnc(Nc3ccc(N4CC(C)OC(C)C4)cn3)nc2n(C2CCCC2)c1=O (centres unmarked) [Example 130, 6-Acetyl-8-cyclopentyl-2-[5-(2,6-dimethyl-morpholin-4-yl)-pyridin-2-ylamino]-5-methyl-8H-pyrido[2,3-d]pyrimidin-7-one] | 30 | > 5000 |
| CC(=O)c1c(C)c2cnc(Nc3ccc(N4CCOCC4)cn3)nc2n(C2CCCC2)c1=O [Example 100, 6-Acetyl-8-cyclopentyl-5-methyl-2-(5-morpholin-4-yl-pyridin-2-ylamino)-8H-pyrido[2,3-d]pyrimidin-7-one] | 4 | > 5000 |
| CC(=O)c1c(C)c2cnc(Nc3ccc(N4CCC(O)CC4)cn3)nc2n(C2CCCC2)c1=O [Example 77, 6-Acetyl-8-cyclopentyl-2-(4-hydroxy-3,4,5,6-tetrahydro-2H-[1,3′]bipyridinyl-6′-ylamino)-5-methyl-8H-pyrido[2,3-d]pyrimidin-7-one] | 19 |  |
| O=c1c(F)cc2cnc(Nc3ccc(N4CCNCC4)cn3)nc2n1C1CCCC1 [Example 18, 8-Cyclopentyl-6-fluoro-2-(5-piperazin-1-yl-pyridin-2-ylamino)-8H-pyrido[2,3-d]pyrimidin-7-one hydrochloride] | 51 |  |
| CC(=O)c1c(C)c2cnc(Nc3ccc(N4CCCCC4)cn3)nc2n(C2CCCC2)c1=O [Example 105, 6-Acetyl-8-cyclopentyl-5-methyl-2-(3,4,5,6-tetrahydro-2H-[1,3′]bipyridinyl-6′-ylamino)-8H-pyrido[2,3-d]pyrimidin-7-one] | 5 |  |
